Test results: patent US12285440B2, “APOE4 impairs myelination via altered cholesterol biosynthesis and transport in oligodendroglia” (Massachusetts Institute of Technology, priority 2021, dated 2025)
“Also recorded” adds a separate entry of the source.

What was measured:
APOE4KI mice [1] = experiment: Cyclodextrin treatment of APOE4KI mice, TEM of corpus callosum (g-ratio); conditions: n=150 neurons, 2 g/kg subcutaneous twice a week for eight weeks, vs control mice
[2] = test system: APOE4 oligodendroglia/iNeuron co-cultures; experiment: In vitro myelination assay, oligodendroglia/iNeuron co-cultures, MBP and neurofilament staining; format: cell-based, human; conditions: APOE4 co-cultures treated 6 weeks
Excerpt: To further investigate the effect of APOE4 on myelination an in vitro model of myelination was developed that employs the genetically controlled isogenic APOE cells derived from CRISPR-edited iPSCs. To achieve this, iPSC-derived oligodendroglia were co-cultured with neurons induced from iPSCs using NGN2 overexpression (iNeurons) in a three-dimensional extracellular matrix that allows each cell type to interact with other cells and self-assemble into tissue-like structures (FIG. 10D). After 2 weeks in these 3D co-cultures, MBP-positive oligodendroglia spread across the culture and engage neurofilament-positive axons (FIG. 10E). After 6 weeks in culture, myelin-associated proteins 04 and Mbp encircled numerous neurofilaments, mimicking biological processes critical to myelination (FIG. 10E). […] Therefore, it was sought to use this in vitro myelination assay to assess the effect of APOE4 on myelin-associated phenotypes in human cells. Consequently, oligodendroglia/iNeuron co-cultures from two different APOE4/4 and APOE3/3 isogenic sets of iPSC-derived cells were established. […]
To determine whether cyclodextrin-induced cholesterol reduction in APOE4 oligodendroglia affected myelination, APOE4 oligodendroglia/iNeuron co-cultures were treated with cyclodextrin for 6 weeks and then assessed myelination phenotypes (FIG. 4C). […]

CYP46A1 = conditions: APOE4 oligodendroglia treated two weeks, vs untreated APOE4 controls
APOE4KI mice [3] = experiment: Open field task; format: in vivo, mouse; conditions: cyclodextrin-treated vs control APOE4KI mice
Experimental: (§1) To investigate whether the increased myelination observed in cyclodextrin treated APOE4KI mice could promote functional improvements, the novel object recognition assay was performed to evaluate learning and memory (FIG. 4G)^57.
(§2) APOE4KI female mice were injected subcutaneously with either 200 μL Cyclodextrin (2 g/kg) or 200 μL saline, twice a week for eight weeks.
(§3) Mice were placed in an open field arena and allowed to move freely for ten minutes. The total distance moved and time mice spent in the center of the arena was tracked using the EthoVision XT software from Noldus. 24 hours later, mice were then placed into the same arena containing two objects and allowed to freely investigate both for a period of eight minutes. After an interval of four hours, mice were then placed back in the chamber with one novel object and one familiar object. The preference index was calculated by determining how much time an animal spent with its nose interacting with the novel object, divided by the total time an animal spent interacting with either object.

[4] = test system: APOE4 iPSC-derived oligodendroglia; experiment: APOE oligodendroglia drug treatment, bodipy-cholesterol and bodipy lipid droplet staining; format: cell-based, human; conditions: for total bodipy-cholesterol staining: APOE4 oligodendroglia treated two weeks (Atorvastatin 1 μM, Simvastatin 1 μM, Cyclodextrin 10 mM), compared with APOE3/3 oligodendroglia
Experimental: It was reasoned that inhibiting cholesterol biosynthesis and/or facilitating cholesterol transport in APOE4 oligodendrocytes may reduce intracellular accumulation and improve myelination.
Cells were plated onto a Millipore eight-chamber glass slide, at a density of 250,000 cells per well. Cells were then cultured in Neurobasal media, supplemented with PDGFR-α, NT3 and β-FGF. […] Cells were fixed with 4% PFA, and stained for Bodipy-cholesterol, WGA-555 and DAPI.

APOE4KI mice [5] = experiment: Cyclodextrin treatment of APOE4KI mice, brain immunohistochemistry (bodipy-cholesterol, Olig2, Mbp); format: in vivo, mouse; conditions: 2 g/kg subcutaneous twice a week for eight weeks, vs saline control
Experimental: It was next assessed whether cyclodextrin could reduce aberrant cholesterol accumulation in oligodendrocytes and promote increased myelination in APOE4KI mice in vivo. APOE4KI mice were treated with subcutaneous injections of cyclodextrin or saline (control) for eight weeks (n=5 control and 4 cyclodextrin treated mice). […] To more directly assess myelination in cyclodextrin treated APOE4 mice, TEM-based ultrastructural analysis was performed.
Animals were anaesthetized via exposure to gaseous isoflurane, and transcardially perfused with ice-cold PBS. The brains were dissected out, one hemisphere frozen in dry ice, and one hemisphere drop-fixed in 4% paraformaldehyde. The post-fixed hemisphere was sliced at a thickness of 40 μm using a Leica vibratome. Slices were blocked with a buffer containing 0.3% Triton-X and 10% normal donkey serum for two hours at room temperature, before being incubated with primary antibody overnight at 4° C. Slices were then washed with PBS and incubated with secondary antibody for two hours at room temperature, washed with PBS again, and mounted. Slides were imaged using a Zeiss LSM 880 microscope, and analyzed using the ImageJ “FIJI” or Imaris softwares. Human brain tissue slices were further incubated with TrueBlack for five minutes prior to mounting, to reduce auto-fluorescence.
as §2

APOE4KI mice [6] = experiment: Novel object recognition task; format: in vivo, mouse; conditions: female APOE4KI mice, control n=12, cyclodextrin n=14
Experimental: as §1, §2, §3

iMGLs [7] = experiment: Calcium imaging of Fluo-4 AM labeled iMGLs with compound uncaging; format: cell-based, human; conditions: uncaging at 405 nm; for amplitude of calcium transients upon uncaging: 1 mM Caged NMDA or 1 mM Caged Glutamate
iMGLs [8] = experiment: Whole-cell patch-clamp of iMGLs, ATP-evoked currents; format: cell-based, human; conditions: local application of 100 μM
[9] = test system: dissociated spheroid cultures; experiment: Patch-clamp electrophysiology of dissociated spheroid neurons with exogenous cholesterol; format: cell-based, human; conditions: 1 mM cholesterol in external solution
Excerpt: (§4) Cholesterol is essential for proper neuronal physiology, and cholesterol depletion is known to impair neurotransmission. Since we detect extracellular accumulation of cholesterol in APOE4 iMGLs, we wondered what the impact of exogenous cholesterol treatment would be to these neuronal cultures. Due to the extended culture times of spheroids, we opted to conduct these studies with excitatory neurons generated by the rapid induction of NGN2 expression. […] To further dissect the physiological process that renders neurons less excitable upon treatment with exogenous cholesterol, we next assessed iPSC-derived neurons by patch-clamp electrophysiology. […] Potentiation of Kir currents is aligned with our observation in cells recorded on MEA, as strong inwardly-rectifying potassium currents are known to hyperpolarize resting membrane potentials and decrease neuronal excitability.
Whole-cell patch-clamp recordings of neurons were performed at 6 to 8 weeks after spheroid dissociation and 2D plating, or for iMGLs after 2 to 4 weeks of iMGL differentiation. […] Membrane potentials were typically kept between −50 mV to −70 mV depending on whether neurons or iMGLs were being recorded. In voltage-clamp mode, currents were recorded with voltage steps ranging from −160 mV to +80 mV. […] ATP-evoked currents were recorded by local application of 100 μM (Sigma-Aldrich; #A9187). […]

[10] = test system: excitatory neurons generated by the rapid induction of NGN2 expression; experiment: MEA recording of NGN2-induced neurons treated with cholesterol; format: cell-based, human
Excerpt: as §4
Dissociated spheroids or NGN2-induced neurons were plated as a 10 μl droplet in Poly-D-Lysine (Sigma-Aldrich) coated wells of a CytoView MEA 48-well plate (Axion BioSystems; M768-tMEA-48B). […] Spontaneous neural activity was recorded for 30 minutes at a sampling rate of 12.5 kHz and an adaptive threshold set at 5.5 times the standard deviation of baseline noise was used for spike detection. […]

forebrain spheroids = format: cell-based, human

## 2-hydroxypropyl-β-cyclodextrin
APOE4KI mice [1]
  g-ratio: significantly (p<0.0001) lower g-ratio; also recorded: decrease in g-ratio
[2]
  levels of MBP localization with neurofilament, comparison with APOE3 co-cultures: not significantly (p=0.0794) different from APOE3 co-cultures
[2]; untreated APOE4 18.89%, APOE3 62.42%, p=0.0274
  MBP staining localized along neurofilament staining: 43.44%+/−5.382
CYP46A1
  expression of CYP46A1: significant (p=0.0011) upregulation
APOE4KI mice [3]; p=0.1275
  total distance moved: similar
APOE4KI mice [3]; p=0.1711
  velocity: similar
APOE4KI mice [3]; p=0.4478
  duration in the center of the cages: similar
[4]
  total bodipy-cholesterol staining: reduced bodipy-cholesterol staining that was not significantly different (p>0.9999) from that in APOE3 oligodendroglia
[4]; cyclodextrin-treated vs control APOE4 oligodendroglia
  neutral lipid droplets measured by bodipy staining: significant (p<0.0001) reduction
[4]; cyclodextrin-treated vs control APOE4 oligodendroglia, normalized to nuclei
  number of intracellular droplets of bodipy-cholesterol: significant (p=0.0092) reduction
APOE4KI mice [5]
  Mbp staining: significantly (p=0.0008) increased Mbp staining; also recorded: overall increase in Mbp
  bodipy-cholesterol staining co-localizing within 1 μm of Mbp staining: significant (p=0.0423) increase; also recorded: increase in cholesterol-myelin colocalization
APOE4KI mice [5]; hippocampus
  bodipy-cholesterol staining accumulated around Olig2-positive nuclei: significantly (p=0.0038) reduced compared to control mice; also recorded: reduction of bodipy-cholesterol staining in cyclodextrin-treated mice
APOE4KI mice [6]
  preference for novel object: significantly (p=0.0466) increased preference for interacting with the novel object

## Nc1ncnc2c1ncn2[C@@H]1O[C@H](COP(=O)(O)OP(=O)(O)OP(=O)(O)O)[C@@H](O)[C@H]1O [ATP]
iMGLs [7]; 1 mM Caged ATP
  calcium transients upon ATP uncaging: robust increase in calcium transients
iMGLs [8]
  response to extracellular ATP, whole-cell patch-clamp: iMGLs sensed extracellular ATP

## CN[C@H](CC(=O)O)C(=O)O [NMDA]
iMGLs [7]
  amplitude of calcium transients upon uncaging: increase the amplitude of calcium transients

## CC(C)c1c(C(=O)Nc2ccccc2)c(-c2ccccc2)c(-c2ccc(F)cc2)n1CC[C@@H](O)C[C@@H](O)CC(=O)O [atorvastatin]
[4]
  total bodipy-cholesterol staining: significantly (p=0.0085 and 0.0450) higher than APOE3/3 oligodendroglia

## CC(C)CCC[C@@H](C)[C@H]1CC[C@H]2[C@@H]3CC=C4C[C@@H](O)CC[C@]4(C)[C@H]3CC[C@]12C [cholesterol]
[9]
  resting membrane potential (RMP): significantly hyperpolarized the resting membrane potential
[9]; vs non-treated neurons
  I-V curve, inwardly-rectifying potassium (Kir) currents: greater inwardly-rectifying potassium (Kir) currents
[10]
  neuronal activity on MEA: phenocopied our observation of treatment with APOE4 iMGL conditioned media

## N[C@@H](CCC(=O)O)C(=O)O [glutamate]
iMGLs [7]
  amplitude of calcium transients upon uncaging: increase the amplitude of calcium transients

## NC1=N[C@H](O)[C@H]2[C@H]3O[C@]4(O)O[C@@H]([C@@H](O)[C@@]2(N1)[C@@H]4O)[C@]3(O)CO [tetrodotoxin]
Forebrain spheroids
  increase in iMGL calcium transients mediated by stimulated spheroid media: reduced to levels of non-stimulated spheroid media
